For two compounds, Ki results are on record in ChEMBL document CHEMBL1125328, “Design and synthesis of a C7 mimetic for the predicted gamma-turn conformation found in several constrained RGD antagonists” (J Med Chem, 1992).

Molecules are shown by their SMILES. Bridge positions count the residues as written; N and C are the ends. Square brackets hold non-standard residues; d marks the D form. Peptide text beside a SMILES is read from it. NMeR = CN[C@@H](CCCNC(=N)N)C(=O)O

This experiment addresses Integrin alpha-IIb/beta-3 (Homo sapiens, UniProt P05106+P08514). The experiment can be described thus: Inhibition of [3H]-107260 binding to purified GPIIb/IIIa of human platelets.

Chain of Integrin alpha-IIb/beta-3 (P05106 27-788 limits assumed): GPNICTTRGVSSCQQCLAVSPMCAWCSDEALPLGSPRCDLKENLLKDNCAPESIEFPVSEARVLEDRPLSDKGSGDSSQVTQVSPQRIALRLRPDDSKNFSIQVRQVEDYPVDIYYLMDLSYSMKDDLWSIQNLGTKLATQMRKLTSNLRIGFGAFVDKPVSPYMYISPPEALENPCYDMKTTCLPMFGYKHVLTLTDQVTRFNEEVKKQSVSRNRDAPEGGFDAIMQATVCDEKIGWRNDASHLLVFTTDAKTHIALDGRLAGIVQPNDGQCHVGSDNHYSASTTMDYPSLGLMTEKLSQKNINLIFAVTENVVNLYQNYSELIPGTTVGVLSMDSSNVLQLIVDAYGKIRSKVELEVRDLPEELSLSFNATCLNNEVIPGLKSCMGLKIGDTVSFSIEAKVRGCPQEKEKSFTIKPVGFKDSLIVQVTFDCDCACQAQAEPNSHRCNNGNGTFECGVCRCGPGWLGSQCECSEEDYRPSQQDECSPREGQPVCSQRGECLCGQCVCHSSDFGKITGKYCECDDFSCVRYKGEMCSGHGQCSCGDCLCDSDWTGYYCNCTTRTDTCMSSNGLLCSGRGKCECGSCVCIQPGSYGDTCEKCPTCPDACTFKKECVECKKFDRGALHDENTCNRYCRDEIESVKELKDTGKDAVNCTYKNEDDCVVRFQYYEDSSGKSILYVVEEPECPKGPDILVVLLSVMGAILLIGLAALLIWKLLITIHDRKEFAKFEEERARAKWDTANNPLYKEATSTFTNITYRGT
Chain of Integrin alpha-IIb/beta-3 (P08514 32-887 limits assumed): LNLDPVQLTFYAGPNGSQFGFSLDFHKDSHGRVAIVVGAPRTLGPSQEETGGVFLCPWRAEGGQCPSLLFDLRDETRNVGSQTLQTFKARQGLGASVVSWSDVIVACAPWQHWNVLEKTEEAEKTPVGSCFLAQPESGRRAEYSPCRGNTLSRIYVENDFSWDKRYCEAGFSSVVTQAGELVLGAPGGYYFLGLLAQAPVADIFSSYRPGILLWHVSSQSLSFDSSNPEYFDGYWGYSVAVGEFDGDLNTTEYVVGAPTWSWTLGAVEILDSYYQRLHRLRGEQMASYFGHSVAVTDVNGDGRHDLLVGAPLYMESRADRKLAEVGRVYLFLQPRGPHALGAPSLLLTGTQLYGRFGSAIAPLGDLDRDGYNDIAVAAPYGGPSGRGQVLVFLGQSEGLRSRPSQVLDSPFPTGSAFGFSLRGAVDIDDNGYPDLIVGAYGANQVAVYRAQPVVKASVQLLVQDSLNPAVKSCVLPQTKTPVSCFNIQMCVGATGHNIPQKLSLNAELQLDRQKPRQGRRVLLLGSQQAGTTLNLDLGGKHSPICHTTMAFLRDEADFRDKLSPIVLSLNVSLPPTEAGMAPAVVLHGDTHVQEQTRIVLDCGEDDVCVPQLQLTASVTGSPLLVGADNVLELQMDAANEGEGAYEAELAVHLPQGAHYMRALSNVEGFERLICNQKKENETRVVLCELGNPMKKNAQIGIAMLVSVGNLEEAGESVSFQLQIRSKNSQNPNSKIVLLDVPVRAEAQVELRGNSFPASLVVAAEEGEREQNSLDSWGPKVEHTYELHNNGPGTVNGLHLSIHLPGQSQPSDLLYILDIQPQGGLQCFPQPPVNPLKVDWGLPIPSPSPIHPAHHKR
Chain of Integrin alpha-IIb/beta-3 (P08514 891-1039 limits assumed): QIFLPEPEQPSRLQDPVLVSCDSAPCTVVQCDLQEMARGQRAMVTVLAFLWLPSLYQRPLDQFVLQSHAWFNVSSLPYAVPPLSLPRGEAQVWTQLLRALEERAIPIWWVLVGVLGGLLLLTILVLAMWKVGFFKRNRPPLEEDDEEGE

By Ki is commonly meant a dissociation constant, usually derived from enzyme kinetics or from competition with a known ligand. Low values mean a stronger hold on the target, high ones a looser hold on the target. `CC(=O)N[C@H]1CSSC[C@@H](C(N)=O)NC(=O)[C@H](CC(=O)O)NC(=O)CNC(=O)[C@H](CCCN=C(N)N)N(C)C1=O` (Ac-C[NMeR]GDC-NH2; disulfide 1-5) had an inhibition constant Ki of 0.175 µM.

`CC(=O)N(C)C(CCCNC(=N)N)C(=O)NCC1=CC(CC(=O)O)C(=O)N(c2ccccc2)CC1` (configuration not stated) displayed an inhibition constant (Ki) of 0.271 µM.
